Test results as given in patent US11096942B2, “Heterocyclic compounds and uses thereof” (Celgene CAR LLC, priority 2010, dated 2021).
Where two headings read alike, the source gives them in different places.

What was measured:
[1] = molecular target: EGFR L858R/T790M (H1975 cells) (Homo sapiens (Human), UniProt P00533, L858R/T790M); assay: Phospho-EGFR signaling immunoblot (1 hr), H1975 cells; assay type: cell-based; conditions: WT EGFR (A431) vs H1975
Description: (§1) A431 human epidermoid carcinoma, H1975 human NSCLC and HCC827 human NSCLC adenocarcinoma cells were obtained from the American Type Culture Center (Manassas, Va.). A431 cells were grown in DMEM (Invitrogen, Carlsbad, Calif.) supplemented with 10% FBS (HyClone, South Logan, Utah) and 1% Penicillin-Streptomycin (P/S, Lonza, Walkersville, Md.).
(§2) All primary antibodies were obtained from Cell Signaling (Danvers, Mass.) and used at 1:1000. Secondary antibodies were used at 1:10,000. Goat anti-mouse IgG IRDye 800CW antibody was obtained from LiCor Biosciences (Lincoln, Nebr.) and goat anti-rabbit IgG Alexa Fluor 680 was obtained from Invitrogen.
(§3) Cells were grown in 12-well plates (Corning, Coring, N.Y.) to 90% confluence and then incubated in low-serum (0.1% FBS) media for 16-18 hr. […] A431 cells were then stimulated with 50 ng/ml EGF (Peprotech, Rocky Hill, N.J.) for 15 min. After treatment, cell monolayers were washed with cold PBS (Invitrogen) and immediately lysed by scrapping into 60 uL cold Cell Extraction Buffer (Invitrogen) supplemented with Complete Protease inhibitors (Roche, Indianapolis, Ind.) and PhosphoSTOP (Roche) phosphatase inhibitors.
(§4) Phospho-protein signals were quantitated using Odyssey Infrared Imaging (Li-Cor Biosciences).
(§5) To assess phosphor-EGFR signaling, blots were probed with rabbit anti-Phospho-EGFR (Y1068) and mouse total anti-EGFR antibodies. Phospho-EGFR signal was normalized to total EGFR expression for each sample. […] Normalized data was fitted using a sigmoidal curve analysis program (Graph Pad Prism version 5) with variable Hill slope to determine the EC50 values.

[2] = test system: HCC827 cells (EGFR delE746-A750); assay: Cell proliferation (CellTiter Glo, 72 hr), HCC827 cells; assay type: cell-based, human
Description: as §1
(§6) Cells were plated in Growth Media supplemented with 5% FBS and 1% P/S at a density of 3,000 cells per well in 96 well tissue culture plates (Corning). […] Growth inhibition (GI50) values were determined by Graph Pad Prism.

[3] = test system: H1975 cells (EGFR L858R/T790M); assay: Cell proliferation (CellTiter Glo, 72 hr), H1975 cells; assay type: cell-based, human
Description: as §1, §6

pEGFR in H1975 cells = pEGFR in H1975 cells (Homo sapiens (Human), UniProt P00533, L858R/T790M); assay: Washout experiment in H1975 cells; assay type: cell-based; conditions: 500 nM for 1 hr, then washout
Description: Washout Experiment in H1975 Cells Containing EGFR Deletion/T790M Mutation
Cells were plated in Growth Media supplemented with 10% FBS and 1% P/S at a density of 2.0×10^5 cells per well in 12 well tissue culture plates. Cells were allowed to settle down for 4 hrs and then maintained in low-serum (0.1% FBS) media overnight.
The following morning the media was removed and the cells were treated with 500 nM test compound in low-serum media for 1 hr. The cells were washed free of compound 2× with PBS (Invitrogen). One set of cells were immediately lysed as indicated above as the 0 hr time point. The remaining cells were incubated with complete RPMI-1640 growth media (10% FBS) for 1, 3, 6 and 24 hr. For the first 1 hr, cells were washed 2× with PBS every 30 min. DMSO (0.5%) controls were collected at the 0, 3, 6 and 24 hr time points.

[4] = molecular target: EGFR delE746-A750 (HCC827 cells) (Homo sapiens (Human), UniProt P00533, DEL746-750); assay: Phospho-EGFR signaling immunoblot (1 hr), HCC827 cells; assay type: cell-based; conditions: WT EGFR (A431) vs HCC827
Description: as §1, §2, §3, §4, §5

[5] = proliferation, WT EGFR (A431) vs HCC827
[6] = proliferation, WT EGFR (A431) vs H1975

Ratio WT/mutant [1] | Ratio WT/mutant [4] | SMILES | Ratio WT/mutant [2, 5] | Ratio WT/mutant [3, 6] | duration of action after compound removal (pEGFR in H1975 cells) | Ratio WT/mutant [2] | Ratio WT/mutant [3]
>50 | – | C=CC(=O)Nc1cccc(Nc2nc(Nc3ccc(N4CCOCC4)cc3OC)ncc2C(F)(F)F)c1 [Compound I-2, N-(3-(2-(2-methoxy-4-morpholinophenylamino)-5-(trifluoromethyl)pyrimidin-4-ylamino)phenyl)acrylamide] | >40 | >20 | prolonged duration of action after compound removal | – | –
>30 | >5 | C=CC(=O)Nc1cccc(Nc2nc(Nc3ccc(N4CCN(S(C)(=O)=O)CC4)cc3OC)ncc2C(F)(F)F)c1 [Compound I-17, N-(3-(2-(2-methoxy-4-(4-(methylsulfonyl)piperazin-1-yl)phenylamino)-5-(trifluoromethyl)pyrimidin-4-ylamino)phenyl)acrylamide] | >15 | >10 | – | – | –
>35 | – | C=CC(=O)Nc1cccc(Oc2nc(Nc3ccc(N4CCN(S(C)(=O)=O)CC4)cc3OC)ncc2C(F)(F)F)c1 [Compound I-22, N-(3-(2-(2-methoxy-4-(4-(methylsulfonyl)piperazin-1-yl)phenylamino)-5-(trifluoromethyl)pyrimidin-4-yloxy)phenyl)acrylamide] | >35 | >10 | – | – | –
>1 | – | C=CC(=O)Nc1cccc(Nc2nc(Nc3ccc(N4CCN(C(=O)CO)CC4)cc3OC)ncc2Cl)c1 [Compound I-12, N-(3-(5-chloro-2-(4-(4-(2-hydroxyacetyl)piperazin-1-yl)-2-methoxyphenylamino)pyrimidin-4-ylamino)phenyl)acrylamide] | >30 | >1 | – | – | –
>30 | – | C=CC(=O)Nc1cccc(Oc2nc(Nc3ccc(N4CCOCC4)cc3OC)ncc2Cl)c1 [Compound I-5, N-(3-(5-chloro-2-(2-methoxy-4-morpholinophenylamino)pyrimidin-4-yloxy)phenyl)acrylamide] | >20 | >5 | – | – | –
>5 | – | C=CC(=O)Nc1cccc(Oc2nc(Nc3ccc(N4CCN(C(=O)NC)CC4)cc3OC)ncc2C(F)(F)F)c1 [Compound I-21, 4-(4-(4-(3-acrylamidophenoxy)-5-(trifluoromethyl)pyrimidin-2-ylamino)-3-methoxyphenyl)-N-methylpiperazine-1-carboxamide] | >20 | >1 | – | – | –
>15 | >15 | C=CC(=O)Nc1cccc(Nc2nc(Nc3ccc(N4CCOCC4)cc3OC(F)F)ncc2C(F)(F)F)c1 [Compound I-14, N-(3-(2-(2-(difluoromethoxy)-4-morpholinophenylamino)-5-(trifluoromethyl)pyrimidin-4-ylamino)phenyl)acrlamide] | >10 | >5 | – | – | –
>15 | – | C=CC(=O)Nc1cccc(Oc2nc(Nc3ccc(N4CCN(C(=O)CO)CC4)cc3OC)ncc2C(F)(F)F)c1 [Compound I-11, N-(3-(2-(4-(4-(2-hydroxyacetyl)piperazin-1-yl)-2-methoxyphenylamino)-5-(trifluoromethyl)pyrimidin-4-yloxy)phenyl)acrylamide] | >45 | >5 | – | – | –
>5 | – | C=CC(=O)Nc1cccc(Oc2nc(Nc3ccc(N4CCN(C(=O)CO)CC4)cc3OC)ncc2Cl)c1 [Compound I-3, N-(3-(5-chloro-2-(4-(4-(2-hydroxyacetyl)piperazin-1-yl)-2-methoxyphenylamino)pyrimidin-4-yloxy)phenyl)acrylamide] | >45 | >5 | – | – | –
>50 | – | C=CC(=O)Nc1cccc(Nc2nc(Nc3ccc(N4CCN(C(C)=O)[C@H](C(=O)OC)C4)cc3OC)ncc2C(F)(F)F)c1 [Compound I-48, (S)-methyl 1-acetyl-4-(4-(4-(3-acrylamidophenylamino)-5-(trifluoromethyl)pyrimidin-2-ylamino)-3-methoxyphenyl)piperazine-2-carboxylate] | >15 | >10 | – | – | –
>50 | – | C=CC(=O)Nc1cccc(Nc2nc(Nc3ccc(N4CCN(C(C)=O)CC4)cc3OC(F)(F)F)ncc2C(F)(F)F)c1 [Compound I-33, N-(3-(2-(4-(4-acetylpiperazin-1-yl)-2-(trifluoromethoxy)phenylamino)-5-(trifluoromethyl)pyrimidin-4-ylamino)phenyl)acrylamide] | >15 | >30 | – | – | –
>5 | – | C=CC(=O)Nc1cccc(Nc2nc(Nc3ccc(N4CCCN(C(=O)OC(C)(C)C)CC4)cc3OC)ncc2C(F)(F)F)c1 [Compound I-44, tert-butyl 4-(4-(4-(3-acrylamidophenylamino)-5-(trifluoromethyl)pyrimidin-2-ylamino)-3-methoxyphenyl)-1,4-diazpane-1-carboxylate] | >5 | >5 | – | – | –
– | – | C=CC(=O)Nc1cccc(Nc2nc(Nc3ccc(N4CCN(C(C)=O)CC4)cc3OC)ncc2C(F)(F)F)c1 [Compound I-4, N-(3-(2-(4-(4-acetylpiperazin-1-yl)-2-methoxyphenylamino)-5-(trifluoromethyl)pyrimidin-4-ylamino)phenyl)acrylamide] | – | – | prolonged duration of action after compound removal | – | –
>1 | – | C=CC(=O)Nc1cccc(Nc2nc(Nc3ccc(N4CCN(C(C)=O)CC4)cc3OC)ncc2Br)c1 [Compound I-40, N-(3-(2-(4-(4-acetylpiperazin-1-yl)-2-methoxyphenylamino)-5-bromopyrimidin-4-ylamino)phenyl)acrylamide] | >10 | >5 | – | – | –
>5 | – | C=CC(=O)Nc1cccc(Nc2nc(Nc3ccc(N4CCCN(C(C)=O)CC4)cc3OC)ncc2C(F)(F)F)c1 [Compound I-7, N-(3-(2-(4-(4-acetyl-1,4-diazepan-1-yl)-2-methoxyphenylamino)-5-(trifluoromethyl)pyrimidin-4-ylamino)phenyl)acrylamide] | >10 | >1 | – | – | –
>20 | – | C=CC(=O)Nc1cccc(Nc2nc(Nc3ccc(N4CCN(C(=O)CO)CC4)cc3OC)ncc2C(F)(F)F)c1 [Compound I-6, N-(3-(2-(4-(4-(2-hydroxyacetyl)piperazin-1-yl)-2-methoxyphenylamino)-5-(trifluoromethyl)pyrimidin-4-ylamino)phenyl)acrylamide] | >40 | >10 | – | – | –

SMILES | Ratio WT/mutant [1] | Ratio WT/mutant [4] | Ratio WT/mutant [2, 5] | Ratio WT/mutant [3, 6] | duration of action after compound removal (pEGFR in H1975 cells) | Ratio WT/mutant [2] | Ratio WT/mutant [3]
C=CC(=O)Nc1cccc(Oc2nc(Nc3ccc(N4CCN(C(=O)OC(C)(C)C)CC4)cc3OC)ncc2Cl)c1 [Compound I-46, tert-butyl 4-(4-(4-(3-acrylamidophenoxy)-5-chloropyrimidin-2-ylamino)-3-methoxyphenyl)piperazine-1-carboxylate] | >10 | >50 | – | – | – | >10 | >1
